Source: BindingDB's records for PubMed 8558445 (Abbott Laboratories, 1996)

Target: Neuronal acetylcholine receptor subunit alpha-4 (Homo sapiens, UniProt P43681)
Sequence (P43681 whole entry): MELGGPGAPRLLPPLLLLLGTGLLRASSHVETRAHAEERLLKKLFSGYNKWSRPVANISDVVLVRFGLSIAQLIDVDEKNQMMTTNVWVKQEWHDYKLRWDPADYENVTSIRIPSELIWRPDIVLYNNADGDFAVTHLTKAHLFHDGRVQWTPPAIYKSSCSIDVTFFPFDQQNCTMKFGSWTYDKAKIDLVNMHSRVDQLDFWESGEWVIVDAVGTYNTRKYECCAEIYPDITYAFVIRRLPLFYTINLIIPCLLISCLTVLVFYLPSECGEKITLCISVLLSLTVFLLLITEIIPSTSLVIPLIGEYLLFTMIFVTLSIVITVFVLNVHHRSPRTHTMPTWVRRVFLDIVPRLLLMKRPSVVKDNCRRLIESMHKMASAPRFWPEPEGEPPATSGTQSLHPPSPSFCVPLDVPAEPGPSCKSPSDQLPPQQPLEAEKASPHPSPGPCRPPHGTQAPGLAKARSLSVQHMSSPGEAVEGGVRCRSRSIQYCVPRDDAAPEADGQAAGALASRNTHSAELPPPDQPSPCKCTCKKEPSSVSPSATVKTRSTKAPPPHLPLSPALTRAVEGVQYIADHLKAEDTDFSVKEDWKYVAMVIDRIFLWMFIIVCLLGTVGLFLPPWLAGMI

Structure (SMILES)	Ki
C=C(C=O)C[C@H]1C[C@H](O)[C@]2(C)O[C@@H]3C[C@@H]4O[C@@H]5C[C@]6(C)O[C@]7(C)CC[C@@H]8O[C@@H]9C[C@]%10(C)O[C@@H]%11C(C)=CC(=O)O[C@H]%11C[C@H]%10O[C@H]9C[C@@H](C)[C@H]8O[C@H]7C[C@H]6O[C@@]5(C)C/C=C\[C@H]4O[C@H]3C[C@H]2O1	4.73 µM
O=c1cccc2n1C[C@H]1CNC[C@H]2C1 [(1S,9R)-7,11-diazatricyclo[7.3.1.0~2,7~]trideca-2,4-dien-6-one]	0.00043 µM
C[N+](C)(C)CCOC(N)=O [(2-Hydroxyethyl)trimethyl ammonium chloride carbamate]	0.0682 µM
c1cncc(C2CCCCN2)c1 (stereo not drawn) [(+-)-anabasine]	0.0376 µM
COc1cc2c3cc1Oc1cc(ccc1O)C[C@H]1c4c(cc(OC)c(O)c4Oc4ccc(cc4)C[C@@H]3N(C)CC2)CC[N+]1(C)C [CAS_57-94-3]	3.48 µM
C[N+](C)(C)CC[N+]1(C)Cc2c(Cl)c(Cl)c(Cl)c(Cl)c2C1 [CAS_6243]	> 10 µM
C[N+]1(C)CCN(c2ccccc2)CC1 [DMPP]	0.0107 µM
C[N+](C)(C)CCCCCCCCCC[N+](C)(C)C [Decamethonium Iodide]	0.962 µM
CN1[C@@H](C[C@@H](O)c2ccccc2)CCC[C@H]1CC(=O)c1ccccc1 [Lobeline]	0.00192 µM
CNC1(C)C2CCC(C2)C1(C)C (stereo unspecified) [Methyl-(2,3,3-trimethyl-bicyclo[2.2.1]hept-2-yl)-amine(Mecamylamine)]	> 10 µM
CCN1C[C@]2(COC(=O)c3ccccc3-n3c(O)cc(C)c3O)CC[C@H](OC)[C@]34C5C[C@@H]6[C@@H](OC)C[C@@](O)(C5[C@H]6OC)[C@@](O)(C13)[C@@H](OC)C24 (stereo partly drawn) [[(1S,4S,5R,6S,8R,9R,13S,16S,18S)-11-ethyl-8,9-dihydroxy-4,6,16,18-tetramethoxy-11-azahexacyclo[7.7.2.1^{2,5}.0^{1,10}.0^{3,8}.0^{13,17}]nonadecan-13-yl]methyl 2-[(3S)-3-methyl-2,5-dioxopyrrolidin-1-yl]benzoate]	3.21 µM
